In ChEMBL document CHEMBL4393682, “Development of M10, myricetin-3-O-β-d-lactose sodium salt, a derivative of myricetin as a potent agent of anti-chronic colonic inflammation” (Eur J Med Chem, 2019):
Values after ≈ are worked out from the molar mass of the structure shown. One block for each compound: values may come before it. Active and inactive are the calls of the source. The calls are words filed in the database; no cut-off is given here.

What was measured:
[1] = Aqueous solubility of compound after 24 hrs by HPLC analysis; assay type: physicochemical; settings: for solubility at 24 h: aqueous; for solubility: buffer, 24 h
[2] = test system: Mus musculus; assay: Anti-inflammatory activity against DSS-induced ulcerative colitis C57BL/6 mouse model assessed as increase in colon length administered via gavage once a day for 14 consecutive days starting from second day post DSS challenge; assay type: functional, organism-based
[3] = Elimination rate constant in Wistar rat liver microsomes at 1 uM measured up to 120 mins by LC-MS/MS analysis; assay type: ADME, Microsome
[4] = Metabolic stability in Wistar rat liver microsomes assessed as compound remaining at 1 uM after 60 mins by LC-MS/MS analysis relative to control; assay type: ADME, Microsome; settings: read-out: Stability
[5] = Metabolic stability in Wistar rat liver microsomes assessed as compound remaining at 1 uM after 40 mins by LC-MS/MS analysis relative to control; assay type: ADME, Microsome; settings: read-out: Stability
[6] = Metabolic stability in Wistar rat plasma assessed as compound remaining at 3 uM after 120 mins by LC-MS/MS analysis relative to control; assay type: ADME, cell-free; settings: read-out: Stability
[7] = Metabolic stability in Wistar rat liver microsomes assessed as compound remaining at 1 uM after 90 mins by LC-MS/MS analysis relative to control; assay type: ADME, Microsome; settings: read-out: Stability
[8] = Metabolic stability in Wistar rat plasma assessed as compound remaining at 3 uM after 60 mins by LC-MS/MS analysis relative to control; assay type: ADME, cell-free; settings: read-out: Stability
[9] = Metabolic stability in Wistar rat liver microsomes assessed as compound remaining at 1 uM after 120 mins by LC-MS/MS analysis relative to control; assay type: ADME, Microsome; settings: read-out: Stability
[10] = Metabolic stability in Wistar rat plasma assessed as compound remaining at 3 uM after 5 mins by LC-MS/MS analysis relative to control; assay type: ADME, cell-free; settings: read-out: Stability
[11] = Metabolic stability in Wistar rat plasma assessed as compound remaining at 3 uM after 90 mins by LC-MS/MS analysis relative to control; assay type: ADME, cell-free; settings: read-out: Stability
[12] = Metabolic stability in Wistar rat plasma assessed as compound remaining at 3 uM after 40 mins by LC-MS/MS analysis relative to control; assay type: ADME, cell-free; settings: read-out: Stability
[13] = test system: Mus musculus; assay: Anti-inflammatory activity against DSS-induced ulcerative colitis C57BL/6 mouse model assessed as colon length at 100 mg/kg, ig administered via gavage once a day for 14 consecutive days starting from second day post DSS challenge (reference value: 5.93 +/- 0.52 cm); assay type: functional
[14] = Metabolic stability in Wistar rat plasma assessed as compound remaining at 3 uM after 10 mins by LC-MS/MS analysis relative to control; assay type: ADME, cell-free; settings: read-out: Stability
[15] = Half life in Wistar rat liver microsomes at 1 uM measured up to 120 mins by LC-MS/MS analysis; assay type: ADME, Microsome; settings: 2 h
[16] = Metabolic stability in Wistar rat liver microsomes assessed as compound remaining at 1 uM after 30 mins by LC-MS/MS analysis relative to control; assay type: ADME, Microsome; settings: read-out: Stability
[17] = Half life in Wistar rat plasma at 3 uM measured up to 180 mins by LC-MS/MS analysis; assay type: ADME, cell-free
[18] = Metabolic stability in Wistar rat liver microsomes assessed as compound remaining at 1 uM after 5 mins by LC-MS/MS analysis relative to control; assay type: ADME, Microsome; settings: read-out: Stability
[19] = Metabolic stability in Wistar rat plasma assessed as compound remaining at 3 uM after 20 mins by LC-MS/MS analysis relative to control; assay type: ADME, cell-free; settings: read-out: Stability
[20] = Metabolic stability in Wistar rat plasma assessed as compound remaining at 3 uM after 180 mins by LC-MS/MS analysis relative to control; assay type: ADME, cell-free; settings: read-out: Stability
[21] = Elimination rate constant in Wistar rat plasma at 3 uM measured up to 180 mins by LC-MS/MS analysis; assay type: ADME, cell-free
[22] = Metabolic stability in Wistar rat liver microsomes assessed as compound remaining at 1 uM after 10 mins by LC-MS/MS analysis relative to control; assay type: ADME, Microsome; settings: read-out: Stability
[23] = Metabolic stability in Wistar rat liver microsomes assessed as compound remaining at 1 uM after 20 mins by LC-MS/MS analysis relative to control; assay type: ADME, Microsome; settings: read-out: Stability
[24] = Ratio of compound solubility to myricetin solubility in water after 24 hrs by HPLC analysis; assay type: physicochemical; settings: buffer
[25] = Ratio of compound t1/2 to myricetin t1/2 in Wistar rat plasma at 3 uM measured up to 180 mins by LC-MS/MS analysis; assay type: ADME, cell-free; settings: 3 h
[26] = Toxicity in po dosed mouse; assay type: organism-based; settings: in vivo
[27] = test system: Mus musculus; assay: Anti-inflammatory activity against DSS-induced ulcerative colitis C57BL/6 mouse model assessed as mild cellular infiltration in colon at 50 mg/kg, ig administered via gavage once a day for 14 consecutive days starting from second day post DSS challenge by H and E staining based analysis; assay type: functional, organism-based
[28] = test system: Mus musculus; assay: Anti-inflammatory activity against DSS-induced ulcerative colitis C57BL/6 mouse model assessed as colon length at 50 mg/kg, ig administered via gavage once a day for 14 consecutive days starting from second day post DSS challenge (reference value: 5.93 to 7.1 cm); assay type: functional
[29] = test system: Mus musculus; assay: Anti-inflammatory activity against DSS-induced ulcerative colitis C57BL/6 mouse model assessed as decrease in inflammatory score at 50 mg/kg, ig administered via gavage once a day for 14 consecutive days starting from second day post DSS challenge; assay type: functional, organism-based
[30] = Ratio of compound t1/2 to myricetin t1/2 in Wistar rat liver microsomes at 1 uM measured up to 120 mins by LC-MS/MS analysis; assay type: ADME, Microsome; settings: 2 h
[31] = test system: Mus musculus; assay: Anti-inflammatory activity against DSS-induced ulcerative colitis C57BL/6 mouse model assessed as colon length at 100 mg/kg, ig administered for 7 consecutive days followed by 7 days treatment with drinking water followed by three additional DSS treatment cycles (reference value: 5.93 +/- 0.52 cm); assay type: functional

solubility at 24 h [1]: 1390 µg/mL (≈ 1480 µM)
SMILES: CC(=O)OC[C@H]1O[C@@H](O[C@H]2[C@H](OC(C)=O)[C@@H](OC(C)=O)[C@H](Oc3c(-c4cc(O)c(O)c(O)c4)oc4cc(O)cc(O)c4c3=O)O[C@@H]2COC(C)=O)[C@H](OC(C)=O)[C@@H](OC(C)=O)[C@H]1OC(C)=O
Activity [2]: Active

k el at 2 h, 1 µM [3]: 0.0005 s⁻¹
remaining at 1 h, 1 µM [4]: 4.85%
remaining at 40 min, 1 µM [5]: 8.01%
remaining at 2 h, 3 µM [6]: 1.23%
solubility at 24 h [1]: 14 µg/mL (≈ 44 µM)
remaining at 1.5 h, 1 µM [7]: 3.32%
remaining at 1 h, 3 µM [8]: 5.81%
remaining at 2 h, 1 µM [9]: 1.9%
remaining at 5 min, 3 µM [10]: 98.1%
remaining at 1.5 h, 3 µM [11]: 0.96%
remaining at 40 min, 3 µM [12]: 19%
remaining at 10 min, 3 µM [14]: 89.2%
t1/2 [15]: 0.3397 h
remaining at 0.5 h, 1 µM [16]: 18.1%
half-life at 3 µM [17]: 0.234 h
remaining at 5 min, 1 µM [18]: 81.3%
remaining at 20 min, 3 µM [19]: 62.1%
remaining at 3 h, 3 µM [20]: 0.53%
k el at 3 h, 3 µM [21]: 0.000833 s⁻¹
remaining at 10 min, 1 µM [22]: 55.9%
remaining at 20 min, 1 µM [23]: 31.6%
SMILES: O=c1c(O)c(-c2cc(O)c(O)c(O)c2)oc2cc(O)cc(O)c12 [MYRICETIN]
Activity [13]: 6.55 cm

SMILES: O=c1c(O[C@@H]2O[C@H](CO)[C@@H](O[C@@H]3O[C@H](CO)[C@H](O)[C@H](O)[C@H]3O)[C@H](O)[C@H]2O)c(-c2cc(O)c(O)c(O)c2)oc2cc([O-])cc(O)c12.[Na+]
Ratio [24]: > 7000
Ratio [25]: 10
LD50 [26]: > 5000 mg/kg
Activity [27]: Active
k el at 2 h, 1 µM [3]: 0.000167 s⁻¹
remaining at 1 h, 1 µM [4]: 83.5%
remaining at 40 min, 1 µM [5]: 87.5%
remaining at 2 h, 3 µM [6]: 55%
solubility at 24 h [1]: > 100000 µg/mL
remaining at 1.5 h, 1 µM [7]: 78.1%
remaining at 1 h, 3 µM [8]: 67.7%
Activity [28]: 8.11 - 10.6 cm
remaining at 2 h, 1 µM [9]: 76.1%
remaining at 5 min, 3 µM [10]: 99.7%
remaining at 1.5 h, 3 µM [11]: 67.8%
remaining at 40 min, 3 µM [12]: 82.4%
remaining at 10 min, 3 µM [14]: 88.9%
t1/2 [15]: 6.8098 h
remaining at 0.5 h, 1 µM [16]: 87.2%
half-life at 3 µM [17]: 2.42 h
remaining at 5 min, 1 µM [18]: 96.6%
remaining at 20 min, 3 µM [19]: 79.8%
inhibition [29]: Active
Ratio [30]: 20
remaining at 3 h, 3 µM [20]: 58.4%
k el at 3 h, 3 µM [21]: 0.000167 s⁻¹
remaining at 10 min, 1 µM [22]: 89.7%
remaining at 20 min, 1 µM [23]: 82.5%

solubility [1]: < 0.1 µg/mL
SMILES: O=C(Oc1c(-c2cc(O)c(O)c(O)c2)oc2cc(O)cc(OC(=O)c3ccccc3O)c2c1=O)c1ccccc1O
Activity [2]: Active

SMILES: Nc1ccc(O)c(C(=O)O)c1 [MESALAMINE]
Activity [31]: 7.15 cm

solubility [1]: < 0.1 µg/mL
SMILES: CC(=O)OC[C@H]1O[C@@H](O[C@H]2[C@H](OC(C)=O)[C@@H](OC(C)=O)[C@H](Oc3c(-c4cc(OCc5ccccc5)c(OCc5ccccc5)c(OCc5ccccc5)c4)oc4cc(OCc5ccccc5)cc(O)c4c3=O)O[C@@H]2COC(C)=O)[C@H](OC(C)=O)[C@@H](OC(C)=O)[C@H]1OC(C)=O
Activity [2]: Active

solubility [1]: < 0.02 µg/mL
SMILES: O=C(Oc1cc(OC(=O)c2ccccc2O)c2c(=O)c(OC(=O)c3ccccc3O)c(-c3cc(OC(=O)c4ccccc4O)c(OC(=O)c4ccccc4O)c(OC(=O)c4ccccc4O)c3)oc2c1)c1ccccc1O
Activity [2]: Active
